Series [1] can be described thus: Half life in Sprague-Dawley rat at 1 mg/kg, iv and 2 mg/kg, po. It counts as ADME, organism-based. As to conditions: in vivo.
In series [2] the target is T1, Cytochrome P450 1A2 (Homo sapiens, UniProt P05177).
T1 sequence (P05177 whole entry): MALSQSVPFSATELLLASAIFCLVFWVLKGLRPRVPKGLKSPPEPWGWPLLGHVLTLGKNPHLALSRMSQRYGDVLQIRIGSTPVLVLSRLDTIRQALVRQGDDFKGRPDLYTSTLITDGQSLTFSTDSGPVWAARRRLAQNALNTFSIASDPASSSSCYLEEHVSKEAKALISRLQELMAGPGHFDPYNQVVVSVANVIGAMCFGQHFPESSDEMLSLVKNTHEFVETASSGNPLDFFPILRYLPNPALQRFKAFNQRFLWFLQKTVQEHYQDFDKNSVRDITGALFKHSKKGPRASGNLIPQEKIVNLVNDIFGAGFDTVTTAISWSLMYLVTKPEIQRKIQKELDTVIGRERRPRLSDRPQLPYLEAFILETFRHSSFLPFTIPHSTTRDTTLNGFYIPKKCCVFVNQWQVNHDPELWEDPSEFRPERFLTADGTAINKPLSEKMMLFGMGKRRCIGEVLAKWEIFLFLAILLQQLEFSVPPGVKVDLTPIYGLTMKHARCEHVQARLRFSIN
As to the kind of experiment: Inhibition of CYP1A2. It counts as ADME.

Series [3] can be described thus: Stability of the compound assessed as glutathione adduct formation. The class given is physicochemical.
Series [4] is described as follows: Half life in mouse. The class given is ADME, organism-based. The note with it: in vivo.
Series [5] relates to Mus musculus. As to the kind of experiment: Decrease in lymphocyte count in mouse acute lymphopenia model at 1 mg/kg, po after 4 hrs by flow cytometry relative to base line. The arrangement: scale not given: the % may be the effect or the level left. The class given is functional.
Series [6] can be described thus: Ratio of drug level in brain to blood in C57BL/6 mouse at 2 mg/kg, ip after 1 hr. The class given is ADME, organism-based. The arrangement: dose 2 mg/kg, route intraperitoneal.
Series [7] in a line: Oral bioavailability in mouse. It counts as ADME, organism-based. The note with it: in vivo.
Series [8] in a line: Percentage unbound in human plasma. It counts as ADME, cell-free.
Series [9] concerns the target Cytochrome P450 2C19 (Homo sapiens, UniProt P33261). As to the kind of experiment: Inhibition of CYP2C19. It counts as ADME.
Series [10] is filed under the species Homo sapiens. As to the kind of experiment: Selectivity ratio of EC50 for S1P3 receptor to EC50 for S1P1 receptor.
Series [11] has as its target Cytochrome P450 3A4 (Homo sapiens, UniProt P08684). Briefly: Inhibition of CYP3A4. It counts as ADME.
Series [12] concerns the target Sphingosine 1-phosphate receptor 3 (Homo sapiens, UniProt Q99500). As to the kind of experiment: Agonist activity against S1P3 receptor by cell based FRET assay. The class given is functional.
Series [13] has as its target Cytochrome P450 2C9 (Homo sapiens, UniProt P11712). Briefly: Inhibition of CYP2C9. The class given is ADME.
The nature of series [14]: Ratio of drug level in brain to blood in C57BL/6 mouse at 2 mg/kg, ip after 4 hrs. It counts as ADME, organism-based. Set-up: dose 2 mg/kg, route intraperitoneal.
The target in series [15] is Cytochrome P450 2D6 (Homo sapiens, UniProt P10635). Briefly: Inhibition of CYP2D6. The class given is ADME.
Chain of Cytochrome P450 2D6 (P10635 whole entry): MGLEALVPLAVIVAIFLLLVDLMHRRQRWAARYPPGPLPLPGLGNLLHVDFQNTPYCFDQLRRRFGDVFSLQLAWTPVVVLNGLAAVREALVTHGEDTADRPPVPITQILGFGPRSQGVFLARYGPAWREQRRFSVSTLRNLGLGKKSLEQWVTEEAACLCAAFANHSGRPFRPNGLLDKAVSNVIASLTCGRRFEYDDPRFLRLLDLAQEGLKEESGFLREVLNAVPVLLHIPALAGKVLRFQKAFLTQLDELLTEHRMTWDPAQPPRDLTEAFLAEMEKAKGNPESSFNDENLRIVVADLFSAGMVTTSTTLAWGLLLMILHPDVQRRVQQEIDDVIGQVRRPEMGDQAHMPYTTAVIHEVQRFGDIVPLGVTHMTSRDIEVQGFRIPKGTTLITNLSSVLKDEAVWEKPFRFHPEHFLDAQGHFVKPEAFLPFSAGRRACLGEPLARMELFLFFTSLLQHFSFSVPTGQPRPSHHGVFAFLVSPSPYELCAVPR
Series [16] can be described thus: Oral bioavailability in Sprague-Dawley rat at 2 mg/kg. The class given is ADME, organism-based. The note with it: in vivo.
In series [17] the test system is Mus musculus. As to the kind of experiment: Decrease in lymphocyte count in mouse acute lymphopenia model at 1 mg/kg, po after 24 hrs by flow cytometry relative to base line. Set-up: scale not given: the % may be the effect or the level left. The class given is functional.
In series [18] the target is Sphingosine 1-phosphate receptor 1 (Homo sapiens, UniProt P21453). Briefly: Agonist activity against S1P1 receptor by cell based FRET assay. The class given is functional.
Chain of Sphingosine 1-phosphate receptor 1 (P21453 whole entry): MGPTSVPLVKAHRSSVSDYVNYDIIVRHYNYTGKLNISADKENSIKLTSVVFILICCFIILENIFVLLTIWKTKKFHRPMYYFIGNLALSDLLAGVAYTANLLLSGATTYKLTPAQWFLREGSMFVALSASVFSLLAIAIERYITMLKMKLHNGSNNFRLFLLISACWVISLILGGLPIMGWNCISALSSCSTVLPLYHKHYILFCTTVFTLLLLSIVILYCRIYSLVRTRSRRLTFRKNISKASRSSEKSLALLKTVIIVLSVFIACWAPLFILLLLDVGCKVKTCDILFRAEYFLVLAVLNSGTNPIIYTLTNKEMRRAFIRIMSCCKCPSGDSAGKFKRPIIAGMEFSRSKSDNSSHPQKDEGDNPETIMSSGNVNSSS
The nature of series [19]: Permeability of the compound. The note with it: not told; read-out: permeability. The class given is ADME.
Series [20] in a line: Solubility of the compound. It counts as physicochemical.
The nature of series [21]: Percentage unbound in rat plasma. The class given is ADME, cell-free.
Series [22] deals with Mus musculus. Briefly: Antiinflammatory activity in C57BL/6 mouse EAE model assessed as decrease in clinical symptoms at 1 mg/kg, po administered qd after 10 days post immunization. The class given is functional, organism-based. Set-up: dose 1 mg/kg.
Series [23] can be described thus: AUC (0 to 24 hrs) in mouse. The class given is ADME, organism-based. The arrangement: time < 24 hr. As to conditions: plasma.

In brackets after ≈: the same amount, converted by molar mass. Activity calls are given as the source filed them. Bounds are passed on as bounds.

Chain of Sphingosine 1-phosphate receptor 3 (Q99500 whole entry): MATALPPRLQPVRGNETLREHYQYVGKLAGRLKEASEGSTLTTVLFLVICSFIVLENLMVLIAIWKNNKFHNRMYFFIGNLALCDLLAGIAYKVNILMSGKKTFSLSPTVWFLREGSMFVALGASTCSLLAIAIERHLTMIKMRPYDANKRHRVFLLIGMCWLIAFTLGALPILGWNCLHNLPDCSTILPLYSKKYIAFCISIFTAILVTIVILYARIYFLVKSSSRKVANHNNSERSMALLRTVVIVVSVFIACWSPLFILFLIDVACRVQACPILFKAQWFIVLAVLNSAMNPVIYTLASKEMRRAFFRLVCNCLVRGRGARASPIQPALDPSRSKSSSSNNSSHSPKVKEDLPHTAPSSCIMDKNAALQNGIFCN
Chain of Cytochrome P450 3A4 (P08684 whole entry): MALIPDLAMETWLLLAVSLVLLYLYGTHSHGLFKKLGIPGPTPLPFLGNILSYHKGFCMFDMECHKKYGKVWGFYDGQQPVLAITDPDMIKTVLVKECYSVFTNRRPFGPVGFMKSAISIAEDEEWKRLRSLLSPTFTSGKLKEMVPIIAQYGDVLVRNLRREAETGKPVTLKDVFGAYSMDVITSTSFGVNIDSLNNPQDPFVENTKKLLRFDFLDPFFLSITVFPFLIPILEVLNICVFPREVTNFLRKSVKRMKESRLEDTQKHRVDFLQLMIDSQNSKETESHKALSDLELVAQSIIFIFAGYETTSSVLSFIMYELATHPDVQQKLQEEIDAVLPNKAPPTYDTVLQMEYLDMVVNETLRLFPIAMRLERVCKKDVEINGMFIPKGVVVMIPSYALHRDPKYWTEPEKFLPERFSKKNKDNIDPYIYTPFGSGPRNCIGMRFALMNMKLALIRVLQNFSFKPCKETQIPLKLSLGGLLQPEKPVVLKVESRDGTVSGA
Chain of Cytochrome P450 2C9 (P11712 whole entry): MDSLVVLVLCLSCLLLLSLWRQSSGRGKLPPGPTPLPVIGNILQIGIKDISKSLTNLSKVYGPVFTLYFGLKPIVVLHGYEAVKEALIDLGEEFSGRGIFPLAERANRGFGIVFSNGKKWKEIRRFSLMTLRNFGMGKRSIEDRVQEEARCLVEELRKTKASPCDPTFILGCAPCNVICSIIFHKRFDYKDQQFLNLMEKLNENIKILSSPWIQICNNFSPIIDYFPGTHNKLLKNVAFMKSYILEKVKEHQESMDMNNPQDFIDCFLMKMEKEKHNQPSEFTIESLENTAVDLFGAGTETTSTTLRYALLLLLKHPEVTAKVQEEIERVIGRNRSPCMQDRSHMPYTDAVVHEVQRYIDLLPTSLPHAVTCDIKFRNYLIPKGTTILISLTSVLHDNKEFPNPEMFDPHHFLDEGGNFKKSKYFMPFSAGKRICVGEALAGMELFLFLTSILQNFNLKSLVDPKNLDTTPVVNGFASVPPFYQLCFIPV
Chain of Cytochrome P450 2C19 (P33261 whole entry): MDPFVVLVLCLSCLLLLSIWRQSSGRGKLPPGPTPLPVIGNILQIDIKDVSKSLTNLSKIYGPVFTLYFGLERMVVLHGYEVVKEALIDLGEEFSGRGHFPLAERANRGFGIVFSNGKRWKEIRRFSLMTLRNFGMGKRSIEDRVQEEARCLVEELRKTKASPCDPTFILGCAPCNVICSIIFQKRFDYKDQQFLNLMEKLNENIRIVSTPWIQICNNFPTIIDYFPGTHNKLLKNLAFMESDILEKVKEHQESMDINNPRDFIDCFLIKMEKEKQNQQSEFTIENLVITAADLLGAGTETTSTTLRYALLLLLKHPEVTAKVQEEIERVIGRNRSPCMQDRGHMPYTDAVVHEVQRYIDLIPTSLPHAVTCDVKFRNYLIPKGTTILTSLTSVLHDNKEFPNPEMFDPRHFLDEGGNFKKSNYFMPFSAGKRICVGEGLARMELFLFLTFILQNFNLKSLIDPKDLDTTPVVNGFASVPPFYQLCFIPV

`CCc1c(CCN2CCC(C(=O)O)CC2)cccc1-c1nsc(-c2ccc(OC(C)C)c(Cl)c2)n1`: the half-life (as a rule, the time needed for the level to fall by half in the phase considered) in series [1] was 27.7 h; in series [4] it was 15.6 h. For the same molecule, the IC50 in series [2], in series [9], in series [11], in [13] and in series [15] was over 10 µM in each case. The Stability entry in [3] is recorded as “Stable”. Moreover, the Activity came out at 16% in [5] and 40% in series [17]. Moreover, the Kp (in general, tissue or fluid exposure divided by exposure in the circulation) at 1 h in [6] turned out to be 0.52. Besides, the bioavailability (as a rule, dose-corrected exposure relative to a reference, in per cent) in [7] was 40%; in [16] it was 70%. The fraction unbound – broadly, the share of the substance not bound to proteins or other matrix – in series [8] was found to be 0.0045. Moreover, in [10], the Ratio EC50 was over 1000. The EC50 (usually the concentration that produces a half-maximal response) in series [12] is over 3.16 µM; in [18] it was 0.000158 µM. In addition, the partition ratio (Kp) at 4 h in series [14] stood at 1.48.

As to `CCc1c(CCCC(=O)O)cccc1-c1noc(-c2ccc(OC(C)C)c(C#N)c2)n1`, the Papp in series [19] turned out to be 34.5 ×10⁻⁶ cm/s. Also, the 50% inhibitory concentration (IC50) in series [2], in [9], in series [11], in series [13] and in series [15] was over 10 µM in each case. Besides, the Kp at 1 h in series [6] is 0.53. Besides, in [20], the solubility – broadly, the concentration that dissolves in the medium under given conditions – is 46 µg/mL (≈ 110 µM). Further, the concentration giving a half-maximal response (EC50) in series [12] is over 10 µM; in series [18] it was 0.0002 µM. In [21], this molecule came in with a free fraction (fraction unbound) of 0.0004. Further, in series [14], the Kp at 4 h is 0.68.

As for `CCc1c(CCCC(=O)O)cccc1-c1nnc(-c2ccc(OC(C)C)c(C#N)c2)s1`, the Papp in [19] was found to be 23 ×10⁻⁶ cm/s. For the same molecule, the IC50 in [2], in series [11], in series [13] and in [15] was over 10 µM throughout. Further, the half-life in series [4] was 3.8 h. The Activity was 37.9% in series [5] and 43.6% in series [17]. Moreover, in [6], the Kp at 1 h came out at 0.21. Also, the bioavailability in series [7] amounted to 100%. Moreover, the outcome in series [22] was inactive. In series [23], the AUC(0-t) – broadly, the area under the concentration-time curve up to a stated or last time point – at 24 h was 5940 ng·h/mL. Further, in [8], the free fraction (fraction unbound) turned out to be 0.0051. Further, the solubility in [20] came out at 256 µg/mL (≈ 588 µM). The EC50 in [12] was over 10 µM; in [18], 0.00126 µM. In addition, the concentration ratio (Kp) at 4 h in [14] was 0.19.

For `CCc1c(CCCC(=O)O)cccc1-c1cnc(-c2ccc(OC(C)C)c(C#N)c2)s1`, the Papp in [19] is 22 ×10⁻⁶ cm/s. Besides, the half-life in series [4] is 3.6 h. Also, the Activity in [5] is 15.3%; in series [17], 62.6%. Besides, the concentration ratio (Kp) at 1 h in series [6] amounted to 0.38. Besides, the bioavailability in [7] was found to be 100%. The result in [22] was inactive. This molecule showed an AUC(0-t) at 24 h in series [23] of 8340 ng·h/mL. For the same molecule, the fraction unbound in series [8] came out at 0.001. The molecule further came in with a solubility in series [20] of 125 µg/mL (≈ 288 µM). The half-maximal effective concentration (EC50) in [12] was over 10 µM; in [18], 0.00316 µM. For the same molecule, the half-maximal inhibitory concentration (IC50) (in general, the concentration at which inhibition is half-maximal) in series [13] was 3.98 µM. Further, in [14], the partition ratio (Kp) at 4 h stood at 0.35.

Turning to `CCc1c(CCCC(=O)O)cccc1-c1cnc(-c2ccc(OC(C)C)c(C#N)c2)nc1`, the Papp in [19] is 19 ×10⁻⁶ cm/s. In addition, the half-life in series [4] was 8 h. Moreover, the figures for the Activity in [5] and in series [17] were 34.9% and 103.2%, respectively. Moreover, in series [6], the concentration ratio (Kp) at 1 h is 0.47. In addition, in series [7], the bioavailability was 78%. For the same molecule, the result in series [22] was Active. In series [23], this molecule came in with an AUC(0-t) at 24 h of 11500 ng·h/mL. The fraction unbound in [8] was found to be 0.0019. The molecule further gave a solubility in series [20] of 161 µg/mL (≈ 375 µM). The EC50 in series [12] is over 10 µM; in series [18] it was 0.001 µM. In series [14], the concentration ratio (Kp) at 4 h came to 0.48. Also, the concentration for half-maximal inhibition (IC50) in series [15] is 6.31 µM.

The record behind these values is ChEMBL document CHEMBL2057096, “Discovery of novel 1,2,4-thiadiazole derivatives as potent, orally active agonists of sphingosine 1-phosphate receptor subtype 1 (S1P(1))” (J Med Chem, 2012).
